Source: patent US4966916A (priority 1989, dated 1990)
“Also recorded” adds a separate entry of the source. Like-named read-outs stand apart in the source and are kept apart here.

How the values were obtained:
rats = tested on: rats; set-up: species or system Sprague-Dawley male rats; conditions: rat, in vivo
[1] = tested on: nicotine-induced seizures in rats; conditions: rat, in vivo
[2] = tested on: nicotine mortality in rats; conditions: rat, in vivo
[3] = tested on: hypertensive action of nicotine in anesthetized rats; conditions: rat, in vivo, iv
[4] = tested on: [3H]-nicotine binding sites in rat brain membranes
[5] = tested on: nicotine-induced prostration in rats; set-up: species or system Sprague-Dawley male rats; conditions: rat, in vivo
[6] = tested on: nicotine receptor, rat brain membranes; type: binding; conditions: for IC50: read-out: [3H]-nicotine IC50
[7] = tested on: nicotine receptor, rat brain membranes; type: binding; conditions: for IC50: read-out: [3H]-MCC IC50
[8] = target: nicotine receptor, rat brain membranes; type: binding
rats or mice = conditions: in vivo; cited from earlier work
[9] = target: nicotine receptor, rat brain membranes; type: binding; remark: listed apart in the source
[10] = tested on: hypertensive action of nicotine in anesthetized rats; assay: animal or person; conditions: Rattus norvegicus, iv
[11] = tested on: nicotinic cholinergic and nicotine-like binding sites in rat brain membranes
[12] = read-out: 3H-Nicotine Binding IC50

With CN1CCCC1c1cccnc1 (single isomer, unassigned; (-)) [(-)-nicotine] as the compound, how does the “action on prostration” value (rats) read?
Its value is “agonists”.

What about the “behavioral / respiratory effects” value (rats) of the same compound?
Its value is “deep diaphragmatic breathing and a decreased respiratory rate”.

And the “symptoms” value [1]?
Its value is “prostration followed by tremors, fasciculations, cyanosis and labored breathing, and myoclonic seizures”.

And the “Seizures (rats with seizures/total)” value ([1]; 1.5 mg/kg)?
The value was 10/10.

And the “Mortality (dead/total)” value ([2]; ip, 3 mg/kg)?
The value was 8/10.

And the “increase in systolic blood pressure” value [3]?
Its value is 25%.

For CN1CCCC1c1cccnc1 (single isomer, unassigned; (-)) [[^3 H]-nicotine, (-)-[^3 H]-nicotine], which “Bmax, higher affinity site” value [4] is on record?
Its value is 5e-15 mol/mg.

For CN(C)c1cccnc1 [3-dimethylaminopyridine], which “action on prostration” value (rats) is on record?
The value was “agonists”.

With CN(C)CCOC(=O)c1ccccc1 [DMAE benzoate, dimethylaminoethyl benzoate] as the compound, how does the “% Antagonism of seizures” value [1] read?
The value was 45%.

What about the “Seizures (rats with seizures/total)” value [1] of the same compound?
The value was 5/9.

For CN(C)CCOC(N)=O [DMAE carbamate], which “behavioral effect” value (rats) is on record?
The value was “only a similar effect”.

Which “% Antagonism of seizures” value [1] does the source give for CN(C)CCOC(=O)C1CCCCC1 [DMAE cyclohexylcarboxylate, dimethylaminoethyl cyclohexylcarboxylate] here?
The value was 50%.

And the “Seizures (rats with seizures/total)” value [1]?
Its value is 4/8.

And the “seizures” value [1]?
The value was “about half of the rats exhibited seizures”.

Which “antagonism of nicotine-induced prostration / nicotine actions” value [5] does the source give for CN(C)CCOC(=O)c1cccnc1 [DMAE nicotinate] here?
The value was “next in effectiveness; also recorded: antagonistic to the nicotine-induced prostration”.

Which results are given for CCN1CCCC1c1cccnc1 (stereo not shown) [N'-ethyl nornicotine]?
decrease in affinity versus nicotine [6]: 3 fold; decrease in affinity versus nicotine [7]: 3 fold; IC50 [7]: 0.1 µM; IC50 ([8]; read-out: 3H-MCC Binding IC50): 0.1 µM

Which “seizures and mortality relative to nicotine” value (rats or mice) does the source give for C[N+]1(C)CCCC1c1cccnc1 (stereo not shown) [N'-methyl nicotonium] here?
Its value is “more potent than nicotine in producing seizures and mortality”.

Which results are given for CCCN1CCCC1c1cccnc1 (stereo not shown) [N'-propyl nornicotine]?
decrease in affinity versus nicotine [6]: 200 fold; decrease in affinity versus nicotine [7]: 200 fold

Which IC50 [9, 12] does the source give for CNC(=O)OC1CCN(Cc2ccccc2)CC1 [N-benzyl-4-piperdyl methylcarbamate] here?
Its IC50 is > 100 µM.

What about the IC50 ([8]; read-out: 3H-MCC Binding IC50) of the same compound?
The IC50 was > 100 µM.

With C[N+](C)(C)CCOC(=O)c1ccccc1 [TMAE benzoate, benzoylcholine] as the compound, how does the “effectiveness relative to the DMAE ester” value [5] read?
Its value is 5 times.

And the “% Antagonism of seizures” value [1]?
Its value is 78%.

What about the “Seizures (rats with seizures/total)” value [1] of the same compound?
The value was 1/8.

What about the “% Antagonism of mortality” value [2] of the same compound?
Its value is 63%.

And the “Mortality (dead/total)” value [2]?
The value was 3/10.

What about the “protection against nicotine mortality” value [2] of the same compound?
The value was 63%.

What does the source list for C[N+](C)(C)CCOC(=O)C1CCCCC1 [TMAE cyclohexylcarboxylate, choline ester of cyclohexylcarboxylic acid]?
% Antagonism of seizures [1]: 78%; Seizures (rats with seizures/total) [1]: 1/8; protection against nicotine mortality [2]: 66%; ED100 ([10]; read-out: Antagonistic dose (±s.d.) to completely block elevation in systolic blood pressure): 5 ± 1.5 mg/kg; ED100 ([10]; read-out: dose completely reversing increase in systolic blood pressure): 1.5 mg/kg

Which “antagonism of nicotine-induced prostration / nicotine actions” value [5] does the source give for C[N+](C)(C)CCOC(=O)Cc1ccccc1 [TMAE phenylacetate] here?
The value was “next in effectiveness”.

With C[N+](C)(C)CCOC(=O)Nc1ccccc1 [TMAE phenylcarbamate] as the compound, how does the “antagonism of nicotine-induced prostration / nicotine actions” value [5] read?
The value was “next in effectiveness”.

What about the “% Antagonism of seizures” value [1] of the same compound?
Its value is 89%.

What about the “Seizures (rats with seizures/total)” value [1] of the same compound?
The value was 1/9.

What about the “protection against seizures” value [1] of the same compound?
Its value is “almost complete protection”.

What about the “% Antagonism of mortality” value [2] of the same compound?
Its value is 50%.

What about the “Mortality (dead/total)” value [2] of the same compound?
Its value is 4/10.

And the “protection against nicotine mortality” value [2]?
Its value is 50%.

Which “antagonism of nicotine-induced prostration / nicotine actions” value [5] does the source give for C[N+](C)(C)CCOC(=S)Nc1ccccc1 [TMAE phenylthiocarbamate] here?
The value was “next in effectiveness”.

What about the “% Antagonism of mortality” value [2] of the same compound?
The value was 63%.

And the “Mortality (dead/total)” value [2]?
Its value is 3/10.

And the “protection against nicotine mortality” value [2]?
The value was 63%.

Which IC50 [9, 12] does the source give for C[N+](C)(C)CCOC(=O)CCC(=O)OCC[N+](C)(C)C [TMAE succinate, succinylcholine] here?
The IC50 was 0.8 µM.

What about the IC50 ([9]; read-out: IC50 for 3H-nicotine) of the same compound?
Its IC50 is ~50 µM.

What about the IC50 ([8]; read-out: 3H-MCC Binding IC50) of the same compound?
Its IC50 is 0.7 µM.

And the IC50 ([8]; read-out: IC50 for 3H-MCC)?
Its IC50 is ~50 µM.

With [3H]C([3H])([3H])[N+](C)(C)CCOC(=O)NC [[^3 H]-MCC, [^3 H]-methylcarbamyl choline] as the compound, how does the “Bmax (Scatchard analysis)” value [11] read?
The value was 4.0×10^-14 moles/mg protein.

And the “rate constant for association” value ([11]; brain membranes)?
Its value is 300000 M⁻¹ s⁻¹.

What about the “rate constant for dissociation” value ([11]; brain membranes) of the same compound?
The value was 0.001 s⁻¹.

For CN1[C@@H]2CC[C@H]1C[C@@H](OC(=O)C(CO)c1ccccc1)C2 (stereo partly shown) [atropine], which “% Antagonism of seizures” value [1] is on record?
The value was 0%.

And the “Seizures (rats with seizures/total)” value [1]?
Its value is 6/6.

And the “protection against nicotine mortality” value [2]?
The value was “ineffective”.

What does the source list for COC(=O)[C@H]1[C@@H](OC(=O)c2ccccc2)C[C@@H]2CC[C@H]1N2C [cocaine]?
antagonism of nicotine-induced prostration / nicotine actions [5]: effectively block nicotine-induced prostration; antagonist activity [5]: inactive

Which Kd [6] does the source give for C[N+](C)(C)CCCCCC[N+](C)(C)C [hexamethonium] here?
Its Kd is > 100 µM.

What about the IC50 [6] of the same compound?
The IC50 was > 100 µM.

What about the IC50 [7] of the same compound?
Its IC50 is > 100 µM.

For CCN(CC)CC(=O)Nc1c(C)cccc1C [lidocaine], which “antagonist activity” value [5] is on record?
The value was “inactive”.

With CNC(=O)Oc1ccc2c(c1)[C@]1(C)CCN(C)[C@@H]1N2C [physostigmin] as the compound, how does the “antagonist activity” value [5] read?
Its value is “inactive”.

What does the source list for CCN(CC)CCOC(=O)c1ccc(N)cc1 [procaine]?
antagonism of nicotine-induced prostration / nicotine actions [5]: effectively block nicotine-induced prostration; antagonist activity [5]: antagonists

With CN(C)C(=O)Oc1cccc([N+](C)(C)C)c1 [prostigmin] as the compound, how does the “antagonist activity” value [5] read?
Its value is “inactive”.

What does the source list for CN1[C@@H](CC(=O)c2ccccc2)CCC[C@H]1C[C@H](O)c1ccccc1 [α-lobeline]?
binding affinity [9]: even greater affinity than (-)-nicotine; also recorded: very high affinity for brain nicotine receptors; antagonist activity [5]: most effective antagonist in blocking the prostration, seizures, and mortality; dose blocking nicotine-induced prostration [5]: 10 nmol; % Antagonism of seizures [1]: 0/8; Seizures (rats with seizures/total) [1]: 1/8; protection against seizures [1]: complete protection against seizures; % Antagonism of mortality [2]: 75%; Mortality (dead/total) [2]: 2/10; reduction of the mortality [2]: 75%

Which results are given for DMAE naphthoate [DMAE napththoate]?
IC50 [9, 12]: 80 µM; IC50 ([8]; read-out: 3H-MCC Binding IC50): 70 µM

Which IC50 [9, 12] does the source give for N-benzylpiperidyl methylcarbamate here?
Its IC50 is > 100 µM.

And the IC50 ([8]; read-out: 3H-MCC Binding IC50)?
The IC50 was > 100 µM.

What does the source list for TMAE naphthoate [TMAE napththoate]?
IC50 [9, 12]: 9 µM; IC50 ([8]; read-out: 3H-MCC Binding IC50): 5 µM

Which Kd [6] does the source give for α-bungarotoxin here?
The Kd was > 100 µM.

And the IC50 [6]?
Its IC50 is > 100 µM.

What about the IC50 [7] of the same compound?
The IC50 was > 100 µM.
